Tested on: Pt3R cells
Test: Itraq-based proteomics analysis of Pt3R cells
Format: cell-based, human
Set-up: M059/DMSO, P4HA2 (O15460) / M059/DMSO, ATP6V1E1 (P36543) / M059/DMSO, HSPH1 (Q92598) / M059/DMSO, ACTB (P60709) / M059/DMSO, HSPB1 (P04792) / M059/DMSO, S100A10 (P60903) / M059/DMSO, LRPAP1 (P30533) / M059/DMSO, GIPC1 (O14908) / M059/DMSO, HSPE1 (P61604) / M059/DMSO, OLA1 (Q9NTK5) / M059/DMSO, EEF1B2 (P24534) / M059/DMSO, PSMD3 (O43242) / M059/DMSO, ZYX (Q15942) / M059/DMSO, HK1 (P19367) / M059/DMSO, ARF3 (P61204) / M059/DMSO, TWF1 (Q12792) / M059/DMSO, HSPA8 (P11142) / M059/DMSO, CTNNB1 (P35222) / M059/DMSO, EHD1 (Q9H4M9) / M059/DMSO, HSPA4 (P34932) / M059/DMSO, PSMD14 (O00487): dose or concentration left out as unconfirmed
Method: Pt3 GBM cells were isolated from a GBM patient as described in our previous study. Temozolomide (TMZ)-resistant phenotype of Pt3R cells had been validated previously. Pt3 cells were cultured in DMEM-supplemented with 10% fetal bovine serum, 100 μg/ml streptomycin and 100 μg/ml penicillin G. Pt3R cells were cultured in the presence of 100 μM of TMZ (MilliporeSigma Corporate, St. Louis, MO, USA).
RNA was isolated using the RNA extracting kit (Zymo Research, Irvine, CA, USA), and subjected to RNA-seq serviced by BIOTOOLS Co., Ltd (New Taipei City, Taiwan). Cell pellets were collected and subjected to proteomic analysis serviced by BIOTOOLS Co., Ltd. The comparison in gene expression between Pt3 and Pt3R was performed using RNA seq, and has been described previously.
Having identified the desired chemical probe 7, we assessed global protein expression using Itraq-based proteomics analysis to estimate whether 7 suppresses HSP90 (Pt3R cell lines). […] This observation is aligned with the results attained with geldanamycin treatment (a well-known HSP90 inhibitor) (Cheung, C. H. A.; Chen, H.-H.; Cheng, L.-T.; Lyu, K. W.; Kanwar, J. R.; Chang, J.-Y. TargetingHsp90 with small molecule inhibitors induces the over-expression of the anti-apoptotic molecule, survivin, in human A549, HONE-1 and HT-29 cancer cells. Mol. Cancer 2010, 9 (1), 1-11; Kuroyanagi, G.; Tokuda, H.; Fujita, K.; Kawabata, T.; Sakai, G.; Kim, W.; Hioki, T.; Tachi, J; Matsushima-Nishiwaki, R.; Otsuka, T. Upregulation of TGF-β-induced HSP27 by HSP90 inhibitors in osteoblasts. BMC Musculoskelet. Disord. 2022, 23 (1), 495) and confirms the HSP90-suppressive activity of compound 7 in GBM cells.

CCN(c1cc(-c2cccc(N(C)C(=O)c3cc(C(C)C)c(O)cc3O)c2)cc(C(=O)NCc2c(C)cc(C)[nH]c2=O)c1C)C1CCOCC1 [Compound 7, 3′-(2,4-dihydroxy-5-isopropyl-N-methylbenzamido)-N-((4,6-dimethyl-2-oxo-1,2-dihydropyridin-3-yl)methyl)-5-(ethyl(tetrahydro-2H-pyran-4-yl)amino)-4-methyl-[1,1′-biphenyl]-3-carboxamide]
HSP family proteins (HSPA1A, HSPA8, HSP90AA1, HSPB1, HSPH1 and HSPA4) (Pt3R cells): significantly increased | M059/DMSO, PA2G4 (Q9UQ80) (decreased): 0.628 | M059/DMSO, ACTB (P60709) (increased): 1.657 | M059/DMSO, ARF3 (P61204) (increased): 1.944 | M059/DMSO, ATP5IF1 (Q9UII2) (increased): 1.646 | M059/DMSO, ATP6V1E1 (P36543) (increased): 1.599 | M059/DMSO, CTNNB1 (P35222) (increased): 1.550 | M059/DMSO, EEF1B2 (P24534) (increased): 1.792 | M059/DMSO, EHD1 (Q9H4M9) (increased): 1.555 | M059/DMSO, GIPC1 (O14908) (increased): 1.699 | M059/DMSO, HK1 (P19367) (increased): 1.921 | M059/DMSO, HSP90AA1 (P07900) (increased): 1.958 | M059/DMSO, HSPA4 (P34932) (increased): 1.561 | M059/DMSO, HSPA8 (P11142) (increased): 2.096 | M059/DMSO, HSPB1 (P04792) (increased): 1.661 | M059/DMSO, HSPE1 (P61604) (increased): 1.710 | M059/DMSO, HSPH1 (Q92598) (increased): 1.642 | M059/DMSO, LRPAP1 (P30533) (increased): 1.667 | M059/DMSO, OLA1 (Q9NTK5) (increased): 1.745 | M059/DMSO, P4HA2 (O15460) (increased): 1.588 | M059/DMSO, PSMD3 (O43242) (increased): 1.801 | M059/DMSO, PSMD14 (O00487) (increased): 1.579 | M059/DMSO, S100A10 (P60903) (increased): 1.664 | M059/DMSO, TWF1 (Q12792) (increased): 1.995 | M059/DMSO, ZYX (Q15942) (increased): 1.903

Reference: patent publication US20260365637A1, “DUAL EZH2-HSP90 INHIBITORS” (TAIPEI MEDICAL UNIVERSITY, priority 2023, published 2026)
